Where two headings read alike, the source gives them in different places.
Legend:
GK (Goto-Kakisaki) rats = test: Antidiabetic activity in GK (Goto-Kakisaki) rats, intravenous glucose tolerance test (IVGTT); format: in vivo, rat; settings: single oral dose 20 mg/kg
Procedure: The antidiabetic activity of compound 10 was evaluated in GK rats, a non-obese model of diabetes of type II. This model was obtained by cross-breeding of Wistar rats selected on the basis of a slight intolerance to glucose. These rats have the majority of dysfunctions observed in diabetes of type II in humans: hyperglycemia, intolerance to glucose, insulin-resistance, and deteriorated insulin response to glucose. These animals were bred at Metabrain and were housed in an animal housing facility with a regulated temperature (22±2° C.) under constant humidity (50±20%) with a day/night cycle of 12 h (light from 7 h-19 h) and have access ad libitum to food and drink. The housing and experimentation conditions comply with the European directives relating to health and ethical treatment of laboratory animals (ETS123). In this study, the rats used are female 16-week old GK rats having fasted for 2 hours before beginning the study (postabsorptive condition). A glucose tolerance test is carried out via an intravenous route (IVGTT) on 2 groups of rats: One group treated with the compound 10 orally at the single dose of 20 mg/kg and a control group treated orally with the carrier. The tolerance test is carried out 1 h after oral administration of compound 10 on the animals anesthetized beforehand with pentobarbital (45 mg/kg via an intraperitoneal route). A blood sample was taken at TO just before administration of the glucose load (0.5 g/kg via an intravenous route) and at x T5, T10, T15, T20 and T30 min after the glucose load. The blood samples are centrifuged in order to collect the plasma for determining glycemia. The results shown above are expressed • as a percentage of the decrease of glycemia at TO for the group treated with the compound 10, compared with the control group. • as a percentage of the decrease of AUC (area under the curve of glycemia versus time) for the group treated with the compound 10 as compared with the control group.

[1] = system: hepatocytes isolated from Wistar rat liver; test: Test of inhibition of hepatic production of glucose (isolated hepatocytes, 3 h or 20 h incubation); format: cell-based; settings: for activity at 50 µM / activity at 100 µM: Rattus norvegicus, Hepatocyte; for activity at 50 µM: read-out: HGP % of ctrl @ 50 μM; for activity at 100 µM: read-out: HGP % of ctrl @ 100 μM
Summary of the method: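 Hepatocytes from 24 h-fasted Wistar rats were cultured overnight in glucose-free RPMI with hydrocortisone (7.10^−5M). Glucose production was run for 3 h in Krebs with lactate/pyruvate plus compounds (0.1% DMSO final), or after an added 20 h pretreatment during the RPMI culture. Supernatant glucose was measured by glucose oxidase and expressed per mg protein (Lowry).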

[2] = system: isolated perfused pancreases of N0STZ diabetic rats; test: Insulin secretion in response to glucose at isolated perfused pancreases of N0STZ diabetic rats; design: species or system rat; settings: for restoring insulin secretion in response to glucose: isolated perfused pancreases of N0STZ diabetic rats; for Insulin secretion peak at G16.5 mM, Tested product: tested concentration 10 μM, glucose 16.5 mM, average +/- SEM
Procedure: The pancreas was taken on rats made to be diabetic by injection of Streptozotocin on the day of birth and anesthetized with Pentobarbital (Nembutal©: 45 mg/kg; intraperitoneal route). These rats have a specific deficiency of the insulin response to glucose, as observed in humans with diabetes of type II. The isolation and the perfusion of the pancreas were achieved according to a modification of the procedure described by Sussman et al.. The effect of the compounds or reference substances is tested for 35 minutes (from t=20 min to t=55 min) in Krebs buffer in the absence (GO) or in the presence of glucose at 2.8 mM (G2.8 mM), and then 20 minutes (from t=55 min to t=75 min) in the presence of glucose 16.5 mM. The concentration of insulin secreted into the medium is measured by an Elisa assay (ELISA Alpco Cat no. 80-INSRTH-E10). The results are expressed as an average+/−SEM (Standard Error of the Mean) of several experiments.

INS-1 cells = test: Stimulation test of insulin secretion by INS-1 cells; format: cell-based; settings: Rattus norvegicus, 1 h incubation, 3.5 mM glucose; for activity at 10 µM: INS1, compound at 10 μM, read-out: INS-1 % of ctrl @ 10 μM; for activity at 50 µM: INS1, compound at 50 μM, read-out: INS-1 % of ctrl @ 50 μM
Procedure: The different compounds were tested on an INS-1 beta-pancreatic line in order to evaluate their capability of potentializing the insulin secretion in response to glucose. Very briefly, the cells are cultivated in a culture medium, RPMI 1640 with 10 mM glucose containing 1 mM of sodium pyruvate, 50 μM of 2-mercaptoethanol, 2 mM of glutamine, 10 mM of HEPES, 100 IU/mL of penicillin, 100 μg/mL of streptomycin and 10% of inactivated fetal calf serum, as described by Asfari et al.. For the insulin secretion test, the INS-1 cells are sown and cultivated in 96-well plates. After 3 days of cultivation at 37° C. in a humid atmosphere (95% air/5% CO2), the medium is removed and the cells are incubated for 16 h in a medium containing 5 mM of glucose and 1% of inactivated fetal calf serum. On the day of the test, the cells are washed with a Krebs buffer (pH 7.4) containing 0.1% of bovine albumin and then pre-incubated for 30 min at 37° C. in this same buffer containing 2.8 mM of glucose. Finally, the cells are again washed with Krebs buffer and then incubated for 1 h in the buffer of the secretion test (Krebs, pH 7.4 containing 0.1% of bovine albumin and 3.5 mM of glucose and molecules to be evaluated). At the end of the test, the cell supernatant is recovered in order to measure therein the secreted insulin, by means of an ELISA kit using a rat anti-insulin antibody (ELISA Alpco Cat no. 80-INSRTH-E10). Each condition is tested in triplicate. The 3.5 mM glucose, the 10^−7M GLP-1 and the Forskoline 10^−7/IBMX 10^−5M mixtures are used as positive controls of the test. A compound stimulates the secretion of insulin if this factor is greater than or equal to 130% of the control for a given glucose dose.

[3] = 3 h, hepatic glucose production, rat hepatocytes, 3 h incubation, compound at 50 μM
[4] = 3 h, hepatic glucose production, rat hepatocytes, 3 h incubation, compound at 100 μM
[5] = 20 h incubation, with two doses
[6] = 20 h, hepatic glucose production, rat hepatocytes, 20 h incubation, compound at 50 μM
[7] = 20 h, hepatic glucose production, rat hepatocytes, 20 h incubation, compound at 100 μM

CCOC(=O)Cc1cc(C(=O)c2ccco2)sc1-c1ccc(Cl)cc1 [compound 10, ethyl 2-(2-(4-chlorophenyl)-5-(furan-2-carbonyl)thiophen-3-yl)acetate]
intolerance to glucose (GK (Goto-Kakisaki) rats; GK rats, IVGTT 1 h after administration): capable of reducing | basal hyperglycemia (GK (Goto-Kakisaki) rats; GK rats, glycemia at T0): capable of reducing | AUC, % of activity (GK (Goto-Kakisaki) rats; female GK rats, IVGTT, vs control group treated with carrier): −35% | Glycemia at T0, % of activity (GK (Goto-Kakisaki) rats; female GK rats, vs control group treated with carrier): −11% | activity at 50 µM [1, 3]: 64% | activity at 100 µM [1, 4]: 39% | restoring insulin secretion in response to glucose [2]: strongest secretions | activity at 10 µM (INS-1 cells): 144% | activity at 50 µM (INS-1 cells): 210%

O=C(O)Cc1cc(C(=O)c2ccco2)sc1-c1ccc(Cl)cc1 [compound 56, 2-(2-(4-chlorophenyl)-5-(furan-2-carbonyl)thiophen-3-yl)acetic acid]
HGP % of ctrl @ 50 μM ([1]; hepatic glucose production, rat hepatocytes, 3 h incubation, compound at 50 μM): 94 % of ctrl | HGP % of ctrl @ 100 μM ([1]; hepatic glucose production, rat hepatocytes, 3 h incubation, compound at 100 μM): 70 % of ctrl | Insulin secretion peak at G16.5 mM, Tested product [2]: 845 ± 133 μU/min.

COc1ccc(S(=O)(=O)c2cc(CC(=O)O)c(-c3ccc(Cl)c(Cl)c3)s2)cc1 [compound 175, 2-[2-(3,4-dichlorophenyl)-5-(4-methoxyphenyl)sulfonyl-3-thienyl]acetic acid]
inhibition of hepatic production of glucose ([1]; 3 h incubation, with two doses): strongest inhibitions | activity at 50 µM [1, 3]: 51% | activity at 100 µM [1, 4]: 20% | activity at 10 µM (INS-1 cells): 106% | activity at 50 µM (INS-1 cells): 145%

CCOC(=O)Cc1cc(C(=O)c2ccc(OC)cc2)sc1-c1ccc(Cl)cc1 [compound 13, ethyl 2-(2-(4-chlorophenyl)-5-(4-methoxybenzoyl)thiophen-3-yl)acetate]
inhibition of hepatic production of glucose [1, 5]: strongest inhibitions | activity at 50 µM [1, 3]: 84% | activity at 100 µM [1, 4]: 69% | activity at 50 µM [1, 6]: 58% | activity at 100 µM [1, 7]: 35% | restoring insulin secretion in response to glucose [2]: strongest secretions | Insulin secretion peak at G16.5 mM, Tested product [2]: 1 489 μU/min. | activity at 10 µM (INS-1 cells): 155%

COc1ccc(C(=O)c2cc(CC(=O)OC(C)(C)C)c(-c3ccc(Cl)cc3)s2)cc1 [compound 84, tert-butyl 2-(2-(4-chlorophenyl)-5-(4-methoxybenzoyl)thiophen-3-yl)acetate]
activity at 50 µM [1, 6]: 85% | activity at 100 µM [1, 7]: 40% | activity at 10 µM (INS-1 cells): 139% | activity at 50 µM (INS-1 cells): 153%

CCOC(=O)C(COC)c1cc(C(=O)c2ccc(OC)cc2)sc1-c1ccc(Cl)cc1 (centres unmarked) [compound 124, ethyl 2-(2-(4-chlorophenyl)-5-(4-methoxybenzoyl)thiophen-3-yl)-3-methoxypropanoate]
activity at 50 µM [1, 6]: 92% | activity at 100 µM [1, 7]: 60% | restoring insulin secretion in response to glucose [2]: strongest secretions | activity at 10 µM (INS-1 cells): 177% | activity at 50 µM (INS-1 cells): 169%

CCOC(=O)Cc1cc(C(=O)c2ccco2)sc1-c1ccc(Cl)c(Cl)c1 [compound 158, ethyl 2-[2-(3,4-dichlorophenyl)-5-(furan-2-carbonyl)-3-thienyl]acetate]
inhibition of hepatic production of glucose ([1]; 3 h incubation, at the dose of 50 μM): strongest inhibitions | activity at 50 µM [1, 3]: 59% | activity at 10 µM (INS-1 cells): 132% | activity at 50 µM (INS-1 cells): 201%

O=C(O)Cc1cc(C(=O)c2ccco2)sc1-c1cccc(F)c1F [compound 136, 2-(2-(2,3-difluorophenyl)-5-(furan-2-carbonyl)thiophen-3-yl) acetic acid]
activity at 50 µM [1, 6]: 64% | activity at 100 µM [1, 7]: 43% | activity at 10 µM (INS-1 cells): 120% | activity at 50 µM (INS-1 cells): 158%

CCOC(=O)Cc1cc(C(=O)c2ccccc2)sc1-c1ccc(Cl)cc1 [compound 15, ethyl 2-(5-benzoyl-2-(4-chloro-phenyl)thiophen-3-yl)acetate]
activity at 50 µM [1, 6]: 63% | activity at 100 µM [1, 7]: 32% | activity at 10 µM (INS-1 cells): 150% | activity at 50 µM (INS-1 cells): 160%

CCOC(=O)Cc1cc(C(=O)c2ccc(Cl)o2)sc1-c1ccc(Cl)cc1 [compound 176, ethyl 2-[5-(5-chlorofuran-2-carbonyl)-2-(4-chlorophenyl)-3-thienyl]acetate]
activity at 50 µM [1, 3]: 76% | activity at 100 µM [1, 4]: 36% | activity at 10 µM (INS-1 cells): 144% | activity at 50 µM (INS-1 cells): 246%

CCOC(=O)C(C)c1cc(C(=O)c2ccc(OC)cc2)sc1-c1ccc(Cl)cc1 (centres unmarked) [compound 123, ethyl 2-(2-(4-chlorophenyl)-5-(4-methoxybenzoyl)thiophen-3-yl)propanoate]
activity at 50 µM [1, 3]: 101% | activity at 100 µM [1, 4]: 63% | activity at 10 µM (INS-1 cells): 168% | activity at 50 µM (INS-1 cells): 166%

COC(=O)Cc1cc(C(=O)c2ccco2)sc1-c1ccccc1 [compound 3, methyl 2-(5-(furan-2-carbonyl)-2-phenylthiophen-3-yl)acetate]
activity at 50 µM [1, 3]: 82% | activity at 100 µM [1, 4]: 74% | activity at 10 µM (INS-1 cells): 152% | activity at 50 µM (INS-1 cells): 318%

CC(C)OC(=O)Cc1cc(C(=O)c2ccco2)sc1-c1ccc(Cl)cc1F [compound 143, isopropyl 2-(2-(4-chloro-2-fluorophenyl)-5-(furan-2-carbonyl)thiophen-3-yl)acetate]
activity at 50 µM [1, 3]: 89% | activity at 100 µM [1, 4]: 72% | activity at 10 µM (INS-1 cells): 127% | activity at 50 µM (INS-1 cells): 233%

CCOC(=O)Cc1cc(C(=O)c2ccc(OC)cc2)sc1-c1ccc(Cl)c(Cl)c1 [compound 157, ethyl 2-[2-(3,4-dichlorophenyl)-5-(4-methoxybenzoyl)-3-thienyl]acetate]
activity at 50 µM [1, 3]: 97% | activity at 100 µM [1, 4]: 74% | Insulin secretion peak at G16.5 mM, Tested product [2]: 989 ± 86 μU/min. | activity at 50 µM (INS-1 cells): 140%

CCOC(=O)Cc1cc(C(=O)c2ccco2)sc1-c1cccc(F)c1F [compound 130, ethyl 2-(2-(2,3-difluorophenyl)-5-(furan-2-carbonyl)thiophen-3-yl)acetate]
inhibition of hepatic production of glucose [1, 5]: strongest inhibitions | activity at 50 µM [1, 6]: 53% | activity at 100 µM [1, 7]: 40% | activity at 10 µM (INS-1 cells): 179% | activity at 50 µM (INS-1 cells): 323%

— US9777015B2, “Useful thiophene derivatives in the treatment of diabetes” (METABRAIN RESEARCH, priority 2012, dated 2017)
